Measurements from patent US8628963B2, “Medium composition comprising neuropeptide Y for the generation, maintenance, prolonged undifferentiated growth of pluripotent stem cells and method of culturing pluripotent stem cell using the same” (Korea Research Institute of Bioscience and Biotechnology, priority 2009, dated 2014).
Entries after “also recorded” stand apart in the source; their conditions may differ.

What was measured:
[1] = tested on: human embryonic stem cells; test: Feeder-free culture: maintenance of undifferentiated state (morphology, ALP staining, hESC markers); type: cell-based; conditions: 3 μM antagonist in NPY medium
Experimental: Each experiment was carried out at least three times. […] Error bars represent standard error of the mean (n=3).

phospho-AKT in H9 cells = test: Western blot of NPY signalling: AKT phosphorylation; type: cell-based, human; conditions: 1 μM NPY
Experimental: (§1) The membranes were probed with the indicated antibodies, and β-actin was used as a loading control. For protein quantification, the blots were scanned, and the bands were quantified using densitometry (a-c, lower panels). The data are presented as the mean±SE (n=3). **p<0.01, *p<0.05, by t-test.
(§2) The supernatant was re-centrifuged for 10 min, and protein concentrations determined using the BCA protein assay kit (Pierce, Rockford, Ill.). Proteins (20 μg) were fractionated by SDS polyacrylamide gel electrophoresis (PAGE), and electrotransferred to polyvinylidene fluoride (PVDF) membranes (Millipore Corp, Bedford, Mass.). Membranes were blocked in PBS containing 0.1% Tween-20 and 5% non-fat milk for 2 hrs at room temperature, and probed with primary antibodies diluted in PBS/0.2% BSA for 1 hr. After washing, membranes were incubation with the corresponding secondary anti-rabbit HRP-conjugated or anti-mouse HRP-conjugated antibodies (Amersham, Arlington Heights, Ill.), and the bands were visualized using the ECL Advance kit (Amersham). Bands were analyzed for density with Image Gauge software (Fuji Photo Film GMBH, D) and normalized to loading control (β-actin) bands. All experiments were performed in triplicate. Error bars represent standard error of the mean (n=3).

[2] = tested on: phospho-ERK1/2 in H9 cells; test: Western blot of NPY signalling: ERK1/2 phosphorylation; type: cell-based, human; conditions: 30 min pretreatment with receptor antagonist (3 μM in FIG. 11 legend), 1 μM NPY
Experimental: as §1, §2

phospho-CREB in H9 cells = test: Western blot / immunohistochemistry of NPY signalling: CREB phosphorylation; type: cell-based, human; conditions: 1 μM NPY; for Effect on NPY-mediated CREB phosphorylation: pretreatment with kinase inhibitor, inhibition appeared incomplete
Experimental: as §1
For immunostaining, cells were plated on matrigel-coated 4-well Lab-Tek chamber slides (Nunc, Naperville, Ill.) and cultured for 5 days under described conditions. […] Cells were incubated for 2 hrs at 4° C. with respective primary antibodies diluted in PBS/0.2% BSA. After washing, cells were incubated with FITC- or Alexa 594-conjugated secondary antibodies (Invitrogen) in PBS/0.2% BSA for 1 hr at room temperature. Cells were counterstained using 10 μg/ml DAPI (4′,6-diamidino-2-phenylindole). Chamber slides were analyzed by an Olympus microscope or Axiovert 200M microscope (Carl Zeiss, Gottingen, Germany).
as §2

H9 hESCs = test: BrdU incorporation (hESC proliferation); type: cell-based, human; conditions: inhibitor 10 μM (FIG. 4b), NPY medium
Experimental: The proliferation rate of H9 hESCs cultured using the indicated media was measured using BrdU incorporation. […] Upper panels: representative images of BrdU+ cells. Bar=100 μm. Lower panels: Quantification of BrdU+ cells. The relative number of BrdU+ cells per field of vision was quantified and is presented as the percentage of the total number of cells counted.
Human embryonic stem cells were grown on matrigel-coated 4-well LabTec chamber slides for 4 days for the 5-bromo-2-deoxyuridine (BrdU; BD Pharmingen, San Diego) incorporation assays.
For BrdU incorporation, the cells were incubated in the presence of 30 μM BrdU for 1 hr at 37° C. […] After washing, the cells were incubated with the anti-BrdU antibody in PBS supplemented with 3% BSA for 1 hr, and then incubated with a FITC-conjugated secondary antibody (Invitrogen) for 30 min. The nuclei were stained with DAPI and examined using an Olympus microscope. The mean number of BrdU+ cells per field of vision was determined. At least four fields of vision per coverslip were counted.

H9 cells = test: Growth efficiency test (cell number); type: cell-based, human; conditions: TGFβ addition (1 ng/ml) to N2/B27 medium with NPY, compared with MEF-CM and UM supplemented with NPY
Experimental: Comparison of the growth efficiency of H9 cells cultured using the indicated media for 6 days by measuring the cell number as described in Materials and Methods. The data are presented as the mean±SE (n=3). **p<0.01, *p<0.02, by t-test.
hESC clumps (100×100 μm; approximately 70-90 cells per clump) was seeded evenly on a 35 mm culture dish coated with Matrigel in a final volume of 2 ml. The cells were plated to a cell density of approximately 5×10^5 cells per 35 mm culture dish. The plated cells were allowed to grow for 6 days under described culture conditions. To determine the number of cells, the cells were washed with PBS and trypsinized. The cell suspension was mixed with a 0.4% (wt/vol) trypan blue solution, and the number of live cells was determined using a hemocytometer. Each trial was performed in triplicate.

NC(N)=NCCC[C@@H](NC(=O)C(c1ccccc1)c1ccccc1)C(=O)NCc1ccc(O)cc1 [BIBP3226]
Maintenance of undifferentiated state in NPY medium in presence of antagonist (morphology; ALP, OCT4, SOX2, hTERT, TDGF) [1]: fail to maintain in an undifferentiated state; also recorded: loss of undifferentiated human embryonic stem cells | Effect on NPY-mediated AKT activation (phospho-AKT in H9 cells; 30 min pretreatment with receptor antagonist (3 μM in FIG. 11 legend)): significantly reduced | Effect on NPY-mediated ERK activation [2]: significantly reduced | Effect on NPY-mediated up-regulation of p-CREB (phospho-CREB in H9 cells; pretreatment with receptor antagonist): partially blocked

O=S(=O)(NCCNC/C=C/c1ccc(Br)cc1)c1cccc2cnccc12 [H89]
Effect on NPY-stimulated BrdU incorporation (H9 hESCs): potent in suppressing NPY-stimulated BrdU incorporation | Effect on NPY-mediated CREB phosphorylation (phospho-CREB in H9 cells): blocked

N#CC(=C(/N)Sc1ccccc1N)/C(C#N)=C(\N)Sc1ccccc1N [U0126]
Effect on NPY-stimulated BrdU incorporation (H9 hESCs): potent in suppressing NPY-stimulated BrdU incorporation | Effect on NPY-mediated AKT activation (phospho-AKT in H9 cells; pretreatment with kinase inhibitor (10 μM in FIG. 12 legend)): inhibited | Effect on NPY-mediated CREB phosphorylation (phospho-CREB in H9 cells): blocked

TGFβ
Effect on growth efficiency (cell number) (H9 cells): did not affect the growth efficiency
